Test results taken from patent US20210244028A1, “TREATMENT FOR REMOVING ECTOPARASITES FROM FISH” (priority 2018, published 2021).

System: Lepeophtheirus salmonis
Assay: Relative efficacy study, 60 min static bucket treatment of infected salmon (Example 2.2)
Format: in vivo
Protocol: 120 salmon fish (Salmo salar) were divided across five flow-through treatment tanks and acclimated for 24 hours prior to parasite challenge.
Egg strings removed from ovigerous female Lepeophtheirus salmonis were collected and cultured until infective copepodids were produced. The copepodids were then evenly distributed into five bottles containing sea water and stored at ˜10° C. overnight. In preparation for the challenge, water flows in the treatment tanks were stopped and light levels reduced. 650±20 copepodids (˜27 per host) were added to the static water and the tanks maintained in total darkness for 7 hours after which light levels were raised and the water flow resumed.
Fish were randomly divided into ten groups of ten fish and held in static ‘treatment buckets’ containing 30 L of water and high aeration as shown in Table 3. […]
Experimental animals were monitored closely for adverse reactions and the status of the parasite infection. Where possible the time at which all parasites were thought to have detached was recorded. As treatments were performed in static systems, temperature and dissolved oxygen were regularly monitored throughout the procedure and aeration adjusted as required.
After the treatment period, the test animals were removed from the treatment solution and humanly euthanised. Each fish was weighed, measured, and its individual parasite burden assessed. The number of parasites in the treatment solution was also counted and qualitatively assessed for: sex and maturity, apparent signs of neonicotinoid poisoning, and/or potential recovery.
Logistic regression was used to compare parasite clearance after treatment with each of the concentration. Logistic regression analyses were performed using the glm function in R v.2.13.0 and assumed a binomial or quasi-binomial error distribution (determined through the comparison of the null deviance with the degrees of freedom).

**Q.** `O=[N+]([O-])NC1=NCCN1Cc1ccc(Cl)nc1` [imidacloprid] was tested. Which “Parasites remained attached to their hosts at the sampling point” value (“Parasites remained attached” for short) (10 mg/l) did it give?
**A.** 20%

**Q.** What about the “Parasites remained attached” value (25 mg/l) of the same compound?
**A.** 3%

**Q.** What about the “Parasites remained attached” value (15 and 20 mg/l) of the same compound?
**A.** 8%
